US8466259B2, “Adjuvants” (National Health Research Institutes, priority 2007, dated 2013)

Key:
BM-DCs = experiment: Real-time quantitative PCR of cytokine/chemokine gene expression in BM-DCs; type: cell-based, mouse; conditions: 100 nM, 2 or 4 hours
Protocol: The BM-DCs were purified using the Dynabeads® Mouse DC Enrichment Kit (Invitrogen Dynal AS, Oslo, Norway) according to the manufacturer's instructions to 60 90%. The purified BM-DCs were stimulated using medium alone, or with 100 nM of Pam3, BPPcysPEG or rlipo-D1E3, at 37° C. for 2 or 4 hours. Total RNA was extracted from the isolated cells using the RNeasy mini kit (Qiagen, Valencia, Calif.) following the manufacturer's instructions. RNA (0.5-1 μg) was reverse-transcribed to cDNA using an oligo-dT primer in a 20 μl volume and SuperScript III RT (Invitrogen, Carlsbad, Calif.). The mouse Universal Probe Library (UPL) set (Roche, Mannheim, Germany) was used to perform the real-time qPCR assay for gene expression in isolated cell populations (Liu et al. (2007) J Leukoc Biol 82, 354-360.).
The reaction mixture contained 5 ng cDNA, 0.2 μM primers, and LightCycler 480 Probe Master (Roche), and the reagents were reacted in a LightCycler 480 system (Roche). All qPCRs were carried out using an initial denaturation step at 95° C. for 10 min, followed by 45 cycles of 95° C. for 10 s, 60° C. for 20 s, and 72° C. for 2 s. Target gene expression was normalization to HPRT gene expression. The relative gene expression levels were calculated by comparing the expression levels after treatment with various stimulators to those obtained using medium alone. […]

[1] = tested on: p38, ERK1/2 and JNK1/2 in BM-DCs; experiment: Western blot analysis of p38, ERK1/2, JNK1/2 phosphorylation in BM-DCs; type: cell-based, mouse; conditions: 100 nM
Protocol: The BM-DCs were grown in DMEM or RPMI medium without FBS for 16-18 h and then stimulated with 100 nM of the indicated lipopeptides or lipoprotein for 10, 20, 40, 60, 90, or 120 minutes at 37° C. These treated BM-DCs were then lysed in 25 mM HEPES, 150 mM NaCl, 1 mM EDTA, 1 mM EGTA, 10% glycerol, 1% Triton X-100, 10 mM sodium pyrophosphate, 20 mM b-glycerophosphate, Na3VO4, 10 mM NaF, […], and 1 mM PMSF. The concentration of the protein lysates was determined using the BCA protein assay kit (Pierce, Rockford, Ill.). Fifty microgram of lysates were electrophoresed per lane of a 10% SDS-PAGE gel. After the resolved lysates in the gel were transferred to a PVDF membrane, the membranes were blocked with 5% milk and 0.05% Tween-20. The membranes were incubated with antibodies against p38, pp38, pERK1/2, or pJNK1/2 in 5% w/v BSA, 1×PBS and 0.1% Tween-20. Anti-p38 antibody was used as a control for the protein loading level in each lane. The membrane was developed using the LumiGLO® Chemiluminescent Substrate system (Millipore, Billerica, Mass.). The total p38 level was used for normalization, and the induction of pp38 was determined using image analysis software (Image J1.41, NIH, Bethesda, Md.). Relative phosphorylation was calculated as the (density of pp38/density of p38)×100.

TLR2 = biological target: T1, TLR2 (Homo sapiens, UniProt O60603); experiment: NF-kB luciferase reporter assay in TLR2-transfected HEK293 cells; type: cell-based
T1 construct: FLAG; host or cells: HEK293
T1 sequence (O60603 21-784): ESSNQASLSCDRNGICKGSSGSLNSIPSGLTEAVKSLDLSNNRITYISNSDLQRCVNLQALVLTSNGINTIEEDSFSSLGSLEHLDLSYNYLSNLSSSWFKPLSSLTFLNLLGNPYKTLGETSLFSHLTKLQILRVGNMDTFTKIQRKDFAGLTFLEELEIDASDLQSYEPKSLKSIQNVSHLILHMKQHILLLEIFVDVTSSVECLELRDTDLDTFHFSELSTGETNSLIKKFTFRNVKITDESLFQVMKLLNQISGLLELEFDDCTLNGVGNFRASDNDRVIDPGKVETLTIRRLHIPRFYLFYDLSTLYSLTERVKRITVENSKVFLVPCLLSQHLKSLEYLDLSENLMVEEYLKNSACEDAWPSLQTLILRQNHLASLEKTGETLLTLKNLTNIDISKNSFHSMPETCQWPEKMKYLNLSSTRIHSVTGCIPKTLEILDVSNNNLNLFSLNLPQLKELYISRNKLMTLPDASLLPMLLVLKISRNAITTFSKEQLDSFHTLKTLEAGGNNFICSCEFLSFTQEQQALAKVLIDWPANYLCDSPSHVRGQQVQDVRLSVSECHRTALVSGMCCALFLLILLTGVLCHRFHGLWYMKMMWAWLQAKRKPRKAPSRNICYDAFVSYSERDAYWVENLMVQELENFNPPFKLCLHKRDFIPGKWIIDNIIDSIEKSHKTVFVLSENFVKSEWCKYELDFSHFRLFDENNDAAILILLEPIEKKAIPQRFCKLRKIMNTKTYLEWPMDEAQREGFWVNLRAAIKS
Protocol: HEK293 cells were plated onto 24-well plates (2×10^5 cells/well) and cotransfected with 0.1 μg of pFLAG-TLR2, 0.01 μg of pNF-kB-luc, and 0.01 μg of the pRL-TK internal control plasmid (Promega, Madison, Wis.) using lipofectamine 2000 (Invitrogen, Carlsbad, Calif.). After 24 h, the transfected cells were stimulated with various synthetic lipopeptide or recombinant proteins for 24 h. The cells were lysed so that the luciferase activity could be measured using a dual-luciferase reporter assay system (Promega Co., Madison, Wis.). Firefly-luciferase activities were related to Renilla-luciferase activities for the purposes of normalization. Both firefly and Renilla luciferase activities were monitored using a Berthold Orion II luminometer (Pforzheim, Germany).

rE7m = experiment: Anti-E7m IgG ELISA after immunization of mice with rE7m with or without lipo-Nter (Example 5); type: in vivo, mouse; conditions: subcutaneous, combined with 20 μg rE7m, two immunizations at two-week intervals
Protocol: Five mice (6-8 weeks old) were immunized subcutaneously with 20 μg of rE7m with or without lipo-Nter. The mice were given two immunizations at two-week intervals. Blood was collected from each mouse at different time points as indicated. Sera were prepared and stored at −80° C. until use. The level of anti-E7m IgG in the serum samples was determined by titrating the samples in 96-well plates coated with purified rE7m. Bound IgG was detected with horseradish peroxidase-conjugated goat anti-mouse IgG Fc. After the addition of TMB, the absorbance was measured with an ELISA reader at 450 nm.

[2] = tested on: TC-1 cells (expressed HPVE7 cells); experiment: TC-1 tumor growth inhibition, E7-derived peptide RAH with Pam3 or lipo-Nter (Example 7); type: in vivo, mouse; conditions: mice with TC-1 tumors, immunized once subcutaneously at day 7, combined with 20 μg E7-derived peptide RAH
Protocol: Six mice (6-8 weeks old) were inoculated with 2×10^5 TC-1 cells (expressed HPVE7 cells) at day 0. After 7 days, mice were immunized once subcutaneously with 20 μg of E7-derived peptide in the presence of tripamitoylated peptide Pam3 or lipo-Nter. The tumor size was monitored every 2-3 days until tumor volumes higher than 3000 mm^3. The tumor volumes were calculated based on the formula length×width×width/2.

[3] = tested on: TC-1 cells (expressed HPVE7 cells); experiment: TC-1 tumor growth inhibition, rE7m with or without lipo-Nter (Example 6); type: in vivo, mouse; conditions: mice with TC-1 tumors, immunized once subcutaneously at day 7, combined with 20 μg rE7m
Protocol: In this example, assays were conducted to examiner whether the lipo-Nter combined with rE7m can increase the tumor growth inhibition ability. Six mice (6-8 weeks old) were inoculated with 2×10^5 TC-1 cells (expressed HPVE7 cells) at day 0. After 7 days, mice were immunized once subcutaneously with 20 μg of rE7m with or without lipo-Nter. The tumor size was monitored every 2-3 days until tumor volumes higher than 3000 mm^3. The tumor volumes were calculated based on the formula length×width×width/2.

[4] = tested on: bone marrow-derived dendritic cells; experiment: lipo-Nter stimulation of BM-DCs, cytokine ELISA (Example 4); type: cell-based, mouse; conditions: lipo-Nter 100 nM
Protocol: BM-DCs were harvested as previously described (Lutz et al., 1999). Briefly, femurs and tibiae of 6-8 week old female mice were removed, and the bone marrow cells were dispersed by vigorous pipetting. After removing red blood cells with lysis buffer, the isolated bone marrow cells were resuspended to a density of 2−5×10^5/ml cells with RPMI-10: RPMI-1640 (GIBCO BRL, Grand Island, N.Y.) supplemented with 10% P/S, L-glutamine (2 mM, Sigma), 2-mercaptoethanol (50 μM, Sigma), and 10% heat-inactivated FBS. On days 0, 3, and 6, bone marrow cells were added to Petri dishes containing 200 U/mL (20 ng/ml) of recombinant mouse granulocyte macrophage colony stimulating factor (MoGM-CSF, Peprotech, Rocky Hill, N.J.) in RPMI-10. At day 6, either LPS (0.01 μg/ml), lipo-Nter (100 nM) was added. Generally, immature dendritic cells made up 70% of the total cell population. The production of cytokines by BM-DCs was determined using ELISA. Briefly, 100 μL of anti-cytokine (10 μg/ml of IL-12p40, TNF-α) antibodies (R&D system Inc. Minneapolis, Minn.) were coated onto 96-well microtiter plates with 0.1 M carbonate buffer, pH 9.6, following overnight incubation at 4° C. […] The plates were read at 450 nm using an ELISA plate reader (Molecular Devices, CA). The production levels of the cytokines were calculated by subtracting the values obtained for non-stimulated groups.

Substance | IL-10, TGFβ and CXCL1 expression levels (BM-DCs; compared among Pam3, BPPcysPEG and rlipo-D1E3) | expression levels of IL-13 (BM-DCs; compared to Pam3) | time after which phosphorylation dropped down to basal levels [1] | level of the phosphorylation of p38, ERK1/2, JNK1/2 ([1]; compared with Pam3 and rlipo-D1E3) | time of highest induced level of phosphorylation of p38, ERK1/2 and JNK1/2 ([1]; measured 0-120 min) | NF-κB signaling activities (TLR2; at 0.1 or 1 nM concentration, compared among Pam3, rlipo-D1E3 and BPPcysPEG) | dose response of TLR2-dependent NF-κB activation (TLR2; range from 1 μM to 100 nM) | anti-E7 antibody (anti-E7m IgG in serum) (rE7m) | tumor growth inhibition (tumor volume) [2] | anti-tumor activity (tumor volume) [3] | secretion of TNF-α and IL-12p40 [4] | activation of NF-κB signaling through TLR2 (TLR2; purified lipo-Nter)
S-[2,3-bispalmitoyloxy-[2R]-propyl-[R]-cysteinyl-amido polyethyleneglycol [BPPcysPEG] | similar | higher expression levels | 60 min | higher level | 10 min | highest NF-κB signaling activities | stronger activation of TLR2 | – | – | – | – | –
N-acyl-S-diacylglyceryl-CSQEAK [lipo-Nter] | – | – | – | – | – | – | – | enhanced anti-E7 antibody | could inhibit tumor growth | anti-tumor activity stronger than that of rE7m alone | stimulated bone marrow-derived dendritic cells to secrete TNF-α and IL-12p40 | activate NF-κB signaling through TLR2
